The record followed here is US12331041B2, “GLP-1 receptor agonists and uses thereof” (Pfizer Inc., priority 2018, dated 2025).

The structures appear in SMILES notation. Structures can show the parent of a compound that is named as a salt. Where only a bound is given, the exact number is not on record here.

For orientation: EC50 means the concentration that produces a half-maximal response. Lower therefore signals an effect from little substance. Usually Emax stands for the maximal effect, on the per cent scale that the assay sets.

Assay [1] has as its target T1, human GLP-1R (Homo sapiens, UniProt P43220, G168S).
T1 construct: expressed in transfected cells
Description: CHO GLP-1R Clone H6 - Assay 1 (HTRF cAMP agonist assay). In kind it is cell-based. The conditions noted are these: for EC50: CHO Clone H6, high GLP-1R density, cAMP, geometric mean; for Emax / Assay 1 Emax (%): CHO Clone H6, relative to saturating full agonist GLP-1 7-36 (1 μM), arithmetic mean. Here is the method: GLP-1R-mediated agonist activity was determined with a cell-based functional assay utilizing an HTRF (Homogeneous Time-Resolved Fluorescence) cAMP detection kit (cAMP HI Range Assay Kit; CisBio cat #62AM6PEJ) that measures cAMP levels in the cell. The method is a competitive immunoassay between native cAMP produced by the cells and exogenous cAMP labeled with the dye d2, The tracer binding is visualized by a mAb anti-cAMP labeled with Cryptate. The specific signal (i.e. energy transfer) is inversely proportional to the concentration of cAMP in either standard or experimental sample.
The human GLP-1R coding sequence (NCBI Reference Sequence NP_002053.3, including naturally-occurring variant Gly168Ser) was subcloned into pcDNA3 (Invitrogen) and a cell line stably expressing the receptor was isolated (designated Clone H6).
A 1 mL sample of the cell suspension in growth media was counted on a Becton Dickinson ViCell to determine cell viability and cell count per mL. The remaining cell suspension was then adjusted with growth media to deliver 2000 viable cells per well using a Matrix Combi Multidrop reagent dispenser, and the cells were dispensed into a white 384 well tissue culture treated assay plate (Corning 3570). The assay plate was then incubated for 48 hours at 37° C. in a humidified environment in 5% carbon dioxide.
Varying concentrations of each compound to be tested (in DMSO) were diluted in assay buffer (HBSS with Calcium/Magnesium (Lonza/BioWhittaker cat #10-527F)/0.1% BSA (Sigma Aldrich cat #A7409-1L)/20 mM HEPES (Lonza/BioWhittaker cat #17-737E) containing 100 μM 3-isobutyl-1-methylxanthin (IBMX; Sigma cat #15879). The final DMSO concentration is 1%.
After 48 hours, the growth media was removed from the assay plate wells, and the cells were treated with 20 μL of the serially diluted compound in assay buffer for 30 minutes at 37° C. in a humidified environment in 5% carbon dioxide. Following the 30 minute incubation, 10 μL of labeled d2 cAMP and 10 μL of anti-cAMP antibody (both diluted 1:20 in cell lysis buffer; as described in the manufacturer's assay protocol) were added to each well of the assay plate. The plates were then incubated at room temperature and after 60 minutes, changes in the HTRF signal were read with an Envision 2104 multi-label plate reader using excitation of 330 nm and emissions of 615 and 665 nm. Raw data were converted to nM cAMP by interpolation from a cAMP standard curve (as described in the manufacturer's assay protocol) and the percent effect was determined relative to a saturating concentration of the full agonist GLP-17-36 (1 μM) included on each plate. EC50 determinations were made from agonist dose-response curves analyzed with a curve fitting program using a 4-parameter logistic dose response equation.
For orientation: TR-FRET usually uses a lanthanide donor and a delayed reading to cut background.

The target of assay [2] is T2, human GLP-1R (Homo sapiens, UniProt P43220, L260F).
T2 construct: expressed in transfected cells; host or cells: CHO Flp-In T-REx, clonal line C6 (pcDNA5-FRT-TO)
Description: CHO GLP-1R Clone C6 - Assay 2 (HTRF cAMP agonist assay). In kind it is cell-based. Conditions: for EC50: CHO clone C6, low GLP-1R density, cAMP, geometric mean; for Emax / Assay 2 Emax (%): CHO clone C6, relative to saturating full agonist GLP-1 (1 μM), arithmetic mean. The procedure: GLP-1R-mediated agonist activity was determined with a cell-based functional assay utilizing an HTRF (Homogeneous Time-Resolved Fluorescence) cAMP detection kit (cAMP HI Range Assay Kit; Cis Bio cat #62AM6PEJ) that measures cAMP levels in the cell. The method is a competitive immunoassay between native cAMP produced by the cells and exogenous cAMP labeled with the dye d2. The tracer binding is visualized by a mAb anti-cAMP labeled with Cryptate. The specific signal (i.e. energy transfer) is inversely proportional to the concentration of cAMP in either a standard or an experimental sample.
The human GLP-1R coding sequence (NCBI Reference Sequence NP_002053.3, including naturally-occurring variant Leu260Phe) was subcloned into pcDNA5-FRT-TO and a clonal CHO cell line stably expressing a low receptor density was isolated using the Flp-In™ T-Rex™ System, as described by the manufacturer (ThermoFisher).
A 1 mL sample of the cell suspension in growth media was counted on a Becton Dickinson ViCell to determine cell viability and cell count per mL. The remaining cell suspension was then adjusted with growth media to deliver 1600 viable cells per well using a Matrix Combi Multidrop reagent dispenser, and the cells were dispensed into a white 384 well tissue culture treated assay plate (Corning 3570). The assay plate was then incubated for 48 h at 37° C. in a humidified environment (95% O2, 5% CO2)
Varying concentrations of each compound to be tested (in DMSO) were diluted in assay buffer [HBSS with Calcium/Magnesium (Lonza/BioWhittaker cat #10-527F)/0.1% BSA (Sigma Aldrich cat #A7409-1L)/20 mM HEPES (Lonza/BioWhittaker cat #17-737E)] containing 100 μM 3-isobutyl-1-methylxanthin (IBMX; Sigma cat #15879). The final DMSO concentration in the compound/assay buffer mixture is 1%.
After 48 h, the growth media was removed from the assay plate wells, and the cells were treated with 20 μL of the serially diluted compound in assay buffer for 30 min at 37° C. in a humidified environment (95% O2, 5% CO2). Following the 30 min incubation, 10 μL of labeled d2 cAMP and 10 μL of anti-cAMP antibody (both diluted 1:20 in cell lysis buffer; as described in the manufacturer's assay protocol) were added to each well of the assay plate. The plates were then incubated at room temperature and after 60 minutes, changes in the HTRF signal were read with an Envision 2104 multi-label plate reader using excitation of 330 nm and emissions of 615 and 665 nm. Raw data were converted to nM cAMP by interpolation from a cAMP standard curve (as described in the manufacturer's assay protocol) and the percent effect was determined relative to a saturating concentration of the full agonist GLP-1 (1 μM) included on each plate. EC50 determinations were made from agonist dose response curves analyzed with a curve fitting program using a 4-parameter logistic dose response equation.

T1 sequence (P43220 24-463 G168S): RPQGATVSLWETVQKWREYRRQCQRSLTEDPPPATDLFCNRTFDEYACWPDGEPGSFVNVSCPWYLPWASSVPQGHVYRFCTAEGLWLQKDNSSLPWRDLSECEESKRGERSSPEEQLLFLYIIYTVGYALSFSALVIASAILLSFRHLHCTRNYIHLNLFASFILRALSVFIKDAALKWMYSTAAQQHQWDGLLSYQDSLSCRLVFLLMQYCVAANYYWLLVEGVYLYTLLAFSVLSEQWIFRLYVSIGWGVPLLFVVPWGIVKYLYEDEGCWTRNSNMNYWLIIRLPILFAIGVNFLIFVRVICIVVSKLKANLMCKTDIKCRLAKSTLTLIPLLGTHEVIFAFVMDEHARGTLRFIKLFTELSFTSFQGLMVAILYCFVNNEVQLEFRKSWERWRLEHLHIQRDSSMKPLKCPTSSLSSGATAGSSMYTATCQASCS
T2 sequence (P43220 24-463 L260F): as the sequence (P43220 24-463 G168S) above, with S145G, L237F counted along it

With `N#Cc1ccc(COc2nc(N3CCC4(CC3)CC4c3nc4ccc(C(=O)O)cc4n3C[C@@H]3CCO3)c(F)cc2F)c(F)c1` (mixture of isomers) [Example 56, Ammonium 2-(6-{6-[(4-cyano-2-fluorobenzyl)oxy]-3,5-difluoropyridin-2-yl}-6-azaspiro[2.5]oct-1-yl)-1-[(2S)-oxetan-2-ylmethyl]-1H-benzimidazole-6-carboxylate], in assay [1], a half-maximal effect (EC50) was put at 0.00038 µM and the Emax was determined as 80%. In assay [2], the half-maximal effective concentration (EC50) came to 0.0042 µM and the Emax was 90%.

As to `N#Cc1ccc(COc2cccc(N3CCC4(CC3)CC4c3nc4ccc(C(=O)O)cc4n3CC3CCO3)n2)c(F)c1` (single isomer, unassigned) [Example 35], the values for the EC50 in assay [1] and in assay [2] were 0.33 µM and 13 µM, respectively. Further, the results for the Emax in assay [1] and in assay [2] were 85% and 100%, respectively.

Take `N#Cc1ccc(COc2cccc(N3CCC4(CC3)CC4c3nc4ccc(C(=O)O)cc4n3CC3CCO3)n2)c(F)c1` (single isomer, unassigned) [Example 36]: in assay [1], the midpoint of the response, the EC50, lay at 0.00048 µM and the “Assay 1 Emax (%)” value amounted to 83%. For the same molecule, in assay [2], the concentration for a half-maximal effect (EC50) was found to be 0.015 µM and the “Assay 2 Emax (%)” value is listed as 90%.

For the molecule `O=C(O)c1ccc2nc(C3CC34CCN(c3nc(OCc5ccc(Cl)cc5F)ncc3F)CC4)n(CCn3cncn3)c2c1` (single isomer, unassigned) [Example 41, 2-(6-{2-[(4-chloro-2-fluorobenzyl)oxy]-5-fluoropyrimidin-4-yl}-6-azaspiro[2.5]oct-1-yl)-1-[2-(1H-1,2,4-triazol-1-yl)ethyl]-1H-benzimidazole-6-carboxylic acid, trifluoroacetate salt, from P7], the EC50 was 0.0076 µM in assay [1] and 0.13 µM in assay [2]. Moreover, the Emax in assay [1] came out at 84%; in assay [2] it was 96%.

Regarding `COCCn1c(C2CC23CCN(c2cccc(OCc4ccc(Cl)cc4F)n2)CC3)nc2ncc(C(=O)O)cc21` (single isomer, unassigned) [Example 49, 2-(6-{6-[(4-chloro-2-fluorobenzyl)oxy]pyridin-2-yl}-6-azaspiro[2.5]oct-1-yl)-1-(2-methoxyethyl)-1H-imidazo[4,5-b]pyridine-6-carboxylic acid, ENT-2], in assay [1], the EC50 came out at 0.018 µM and the “Assay 1 Emax (%)” value is given as 75%. In assay [2], this molecule returned an EC50 of 0.29 µM and an Emax of 87%.

In assay [1], `O=C(O)c1ccc2nc(C3CC34CCN(c3ncc(F)c(OCc5ccc(Cl)cc5F)n3)CC4)n(CC3CCO3)c2c1` (single isomer, unassigned) [Example 50] showed an EC50 of 0.00071 µM and an Emax of 78%. In assay [2], this molecule had an EC50 of 0.019 µM and an Emax of 80%.

In the case of `O=C(O)c1ccc2nc(C3CC34CCN(c3ncc(F)c(OCc5ccc(Cl)cc5F)n3)CC4)n(CC3CCO3)c2c1` (single isomer, unassigned) [Example 51], in assay [1], a half-maximal effect (EC50) was put at 0.47 µM and the “Assay 1 Emax (%)” value worked out at 71%. Also, in assay [2], the EC50 was over 20 µM.

In assay [1], `N#Cc1ccc(COc2ccc(F)c(N3CCC4(CC3)CC4c3nc4ccc(C(=O)O)cc4n3CC3CCO3)n2)c(F)c1` (single isomer, unassigned) [Example 54] displayed an EC50 of 0.063 µM and an Emax of 76%. In assay [2], the EC50 worked out at 3.4 µM and the Emax was found to be 93%.

On to `N#Cc1ccc(COc2ccc(F)c(N3CCC4(CC3)CC4c3nc4ccc(C(=O)O)cc4n3CC3CCO3)n2)c(F)c1` (single isomer, unassigned) [Example 55], for which, in assay [1], the 50% effective concentration (EC50) came out at 0.00033 µM and the “Assay 1 Emax (%)” value was 83%. In assay [2], the EC50 came to 0.0058 µM and the “Assay 2 Emax (%)” value amounted to 82%.

With `N#Cc1ccc(COc2nc(N3CCC4(CC3)CC4c3nc4ccc(C(=O)O)cc4n3CC3CCO3)ccc2F)c(F)c1` (single isomer, unassigned; ent-1) [Example 52], the values for the EC50 in assay [1] and in assay [2] were 0.1 µM and 6.4 µM, respectively. The figures for the Emax in assay [1] and in assay [2] were 74% and 100%, respectively.

Turning to `N#Cc1ccc(COc2nc(N3CCC4(CC3)CC4c3nc4ccc(C(=O)O)cc4n3CC3CCO3)c(F)cc2F)c(F)c1` (single isomer, unassigned; ent-1) [Example 57], the values for the EC50 in assay [1] and in assay [2] were 0.0003 µM and 0.0041 µM, respectively. Also, the results for the Emax in assay [1] and in assay [2] were 88% and 98%, respectively.

Consider `COCCn1c(C2CC23CCN(c2ccnc(OCc4ccc(Cl)cc4F)n2)CC3)nc2ccc(C(=O)O)cc21` (single isomer, unassigned; ent-2) [Example 47, Ammonium 2-(6-{2-[(4-chloro-2-fluorobenzyl)oxy]pyrimidin-4-yl}-6-azaspiro[2.5]oct-1-yl)-1-(2-methoxyethyl)-1H-benzimidazole-6-carboxylate, ENT-2], for which, in assay [1], the response was half-maximal at 0.086 µM (EC50) and the “Assay 1 Emax (%)” value came out at 92%. In assay [2], this molecule returned an EC50 of 1.7 µM and an Emax of 100%.

`N#Cc1ccc(COc2nc(N3CCC4(CC3)CC4c3nc4ccc(C(=O)O)cc4n3CC3CCO3)ccc2F)c(F)c1` (single isomer, unassigned; ent-2) [Example 53]: in assay [1], the response was half-maximal at 0.00057 µM (EC50) and the “Assay 1 Emax (%)” value is 83%. In addition, in assay [2], the midpoint of the response, the EC50, lay at 0.014 µM and the “Assay 2 Emax (%)” value stood at 90%.

Take `N#Cc1ccc(COc2nccnc2C2CCN(Cc3nc4ccc(C(=O)O)cc4n3C[C@@H]3CCO3)CC2)c(F)c1` [Example 28, ammonium 2-[(4-{3-[(4-cyano-2-fluorobenzyl)oxy]pyrazin-2-yl}piperidin-1-yl)methyl]-1-[(2S)-oxetan-2-ylmethyl]-1H-benzimidazole-6-carboxylate]: in assay [2], the EC50 is 0.15 µM and the Emax worked out at 98%.

In assay [2], `CCn1cncc1Cn1c(CN2CCC(c3ccnc(OCc4ccc(Cl)cc4F)n3)CC2)nc2ccc(C(=O)O)cc21` [Example 63, 2-[(4-{2-[(4-chloro-2-fluorobenzyl)oxy]pyrimidin-4-yl}piperidin-1-yl)methyl]-1-[(1-ethyl-1H-imidazol-5-yl)methyl]-1H-benzimidazole-6-carboxylic acid] showed an EC50 of 0.01 µM and a maximal response (Emax) of 97%.
